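Interpolation was linear, between the two tested concentrations surrounding the appropriate level; five concentrations were tested over 48 hours in 96-well plates. TGI is the concentration that stops growth completely.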
What was measured:
Test in all cases: NCI anticancer screen, dose series, 48 h
ACHN renal = tested on: ACHN renal
HOP-62 NSCLC = tested on: HOP-62 NSCLC
MDA-MB-435 = tested on: MDA-MB-435
786-0 renal = tested on: 786-0 renal
NCI/ADR-RES ovarian = tested on: NCI/ADR-RES ovarian
UACC-257 melanoma = tested on: UACC-257 melanoma
OVCAR-3 ovarian = tested on: OVCAR-3 ovarian
SNB-19 CNS = tested on: SNB-19 CNS
SK-MEL-5 melanoma = tested on: SK-MEL-5 melanoma
HCT-15 colon = tested on: HCT-15 colon
MALME-3M melanoma = tested on: MALME-3M melanoma
RPMI-8226 leukemia = tested on: RPMI-8226 leukemia
NCI-H522 lung = tested on: NCI-H522 lung
M14 melanoma = tested on: M14 melanoma
SN12C renal = tested on: SN12C renal
SK-MEL-2 melanoma = tested on: SK-MEL-2 melanoma
PC-3 prostate = tested on: PC-3 prostate
U251 CNS = tested on: U251 CNS
K-562 leukemia = tested on: K-562 leukemia
SR leukemia = tested on: SR leukemia
NCI-H460 lung = tested on: NCI-H460 lung
UACC-62 melanoma = tested on: UACC-62 melanoma
MCF7 breast = tested on: MCF7 breast
DU-145 prostate = tested on: DU-145 prostate
SK-MEL-28 melanoma = tested on: SK-MEL-28 melanoma
COLO 205 colon = tested on: COLO 205 colon
SF-539 CNS = tested on: SF-539 CNS
SW-620 colon = tested on: SW-620 colon
HCC-2998 colon = tested on: HCC-2998 colon
T-47D breast = tested on: T-47D breast
SF-268 CNS = tested on: SF-268 CNS
CCRF-CEM leukemia = tested on: CCRF-CEM leukemia
MDA-N = tested on: MDA-N
HL-60(TB) leukemia = tested on: HL-60(TB) leukemia
SF-295 CNS = tested on: SF-295 CNS
LOX IMVI melanoma = tested on: LOX IMVI melanoma
HS 578T breast = tested on: HS 578T breast
A498 renal = tested on: A498 renal
TK-10 renal = tested on: TK-10 renal
KM12 colon = tested on: KM12 colon
OVCAR-8 ovarian = tested on: OVCAR-8 ovarian
CAKI-1 renal = tested on: CAKI-1 renal
EKVX NSCLC = tested on: EKVX NSCLC
NCI-H226 lung = tested on: NCI-H226 lung
NCI-H23 lung = tested on: NCI-H23 lung
HCT-116 colon = tested on: HCT-116 colon
OVCAR-5 ovarian = tested on: OVCAR-5 ovarian
RXF 393 renal = tested on: RXF 393 renal
MOLT-4 leukemia = tested on: MOLT-4 leukemia
A549 NSCLC = tested on: A549 NSCLC
HT29 colon = tested on: HT29 colon
IGROV1 ovarian = tested on: IGROV1 ovarian
OVCAR-4 ovarian = tested on: OVCAR-4 ovarian
BT-549 breast = tested on: BT-549 breast
UO-31 renal = tested on: UO-31 renal
SNB-75 CNS = tested on: SNB-75 CNS
SK-OV-3 ovarian = tested on: SK-OV-3 ovarian
MDA-MB-231 breast = tested on: MDA-MB-231 breast
HOP-92 NSCLC = tested on: HOP-92 NSCLC

Measured: TGI

O=C(O)c1ccccc1/C=C1\Cc2ccccc2C1=O
> 100 µM: ACHN renal | HOP-62 NSCLC | MDA-MB-435 | 786-0 renal | NCI/ADR-RES ovarian | UACC-257 melanoma | OVCAR-3 ovarian | SNB-19 CNS | SK-MEL-5 melanoma | HCT-15 colon | MALME-3M melanoma | RPMI-8226 leukemia | NCI-H522 lung | M14 melanoma | SN12C renal | SK-MEL-2 melanoma | PC-3 prostate | U251 CNS | K-562 leukemia | SR leukemia | NCI-H460 lung | UACC-62 melanoma | MCF7 breast | DU-145 prostate | SK-MEL-28 melanoma | COLO 205 colon | SF-539 CNS | SW-620 colon | HCC-2998 colon | T-47D breast | SF-268 CNS | CCRF-CEM leukemia | MDA-N | HL-60(TB) leukemia | SF-295 CNS | LOX IMVI melanoma | HS 578T breast | A498 renal | TK-10 renal | KM12 colon | OVCAR-8 ovarian | CAKI-1 renal | EKVX NSCLC | NCI-H226 lung | NCI-H23 lung | HCT-116 colon | OVCAR-5 ovarian | RXF 393 renal | MOLT-4 leukemia | A549 NSCLC | HT29 colon | IGROV1 ovarian | OVCAR-4 ovarian | BT-549 breast | UO-31 renal | SNB-75 CNS

C=Cc1ccccc1C1C(C(=O)OCC)=C(C)N=C2OC(C(=O)OC)C(=O)N21 (centres undefined)
> 100 µM: ACHN renal | HOP-62 NSCLC | SK-OV-3 ovarian | MDA-MB-435 | 786-0 renal | NCI/ADR-RES ovarian | UACC-257 melanoma | OVCAR-3 ovarian | SNB-19 CNS | SK-MEL-5 melanoma | HCT-15 colon | MALME-3M melanoma | RPMI-8226 leukemia | NCI-H522 lung | MDA-MB-231 breast | M14 melanoma | SN12C renal | SK-MEL-2 melanoma | PC-3 prostate | U251 CNS | K-562 leukemia | SR leukemia | NCI-H460 lung | UACC-62 melanoma | MCF7 breast | DU-145 prostate | SK-MEL-28 melanoma | COLO 205 colon | SF-539 CNS | SW-620 colon | HCC-2998 colon | T-47D breast | SF-268 CNS | CCRF-CEM leukemia | MDA-N | HL-60(TB) leukemia | SF-295 CNS | LOX IMVI melanoma | A498 renal | TK-10 renal | KM12 colon | OVCAR-8 ovarian | CAKI-1 renal | EKVX NSCLC | NCI-H226 lung | HOP-92 NSCLC | NCI-H23 lung | HCT-116 colon | OVCAR-5 ovarian | RXF 393 renal | MOLT-4 leukemia | A549 NSCLC | HT29 colon | IGROV1 ovarian | OVCAR-4 ovarian | BT-549 breast | UO-31 renal | SNB-75 CNS

— PubChem BioAssay (NCI)
